Assay results taken from ChEMBL document CHEMBL1201862, “PubChem BioAssay data set” (2004).
The source made the active and inactive calls.

How the values were obtained:
[1] = biological target: T1, Sentrin-specific protease 6 (Homo sapiens, UniProt Q9GZR1); type: functional;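 also: Luminescence-based dose-response confirmatory assay of SENP6 inhibition, following up an ultra-high-throughput screen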
T1 sequence (Q9GZR1 whole entry): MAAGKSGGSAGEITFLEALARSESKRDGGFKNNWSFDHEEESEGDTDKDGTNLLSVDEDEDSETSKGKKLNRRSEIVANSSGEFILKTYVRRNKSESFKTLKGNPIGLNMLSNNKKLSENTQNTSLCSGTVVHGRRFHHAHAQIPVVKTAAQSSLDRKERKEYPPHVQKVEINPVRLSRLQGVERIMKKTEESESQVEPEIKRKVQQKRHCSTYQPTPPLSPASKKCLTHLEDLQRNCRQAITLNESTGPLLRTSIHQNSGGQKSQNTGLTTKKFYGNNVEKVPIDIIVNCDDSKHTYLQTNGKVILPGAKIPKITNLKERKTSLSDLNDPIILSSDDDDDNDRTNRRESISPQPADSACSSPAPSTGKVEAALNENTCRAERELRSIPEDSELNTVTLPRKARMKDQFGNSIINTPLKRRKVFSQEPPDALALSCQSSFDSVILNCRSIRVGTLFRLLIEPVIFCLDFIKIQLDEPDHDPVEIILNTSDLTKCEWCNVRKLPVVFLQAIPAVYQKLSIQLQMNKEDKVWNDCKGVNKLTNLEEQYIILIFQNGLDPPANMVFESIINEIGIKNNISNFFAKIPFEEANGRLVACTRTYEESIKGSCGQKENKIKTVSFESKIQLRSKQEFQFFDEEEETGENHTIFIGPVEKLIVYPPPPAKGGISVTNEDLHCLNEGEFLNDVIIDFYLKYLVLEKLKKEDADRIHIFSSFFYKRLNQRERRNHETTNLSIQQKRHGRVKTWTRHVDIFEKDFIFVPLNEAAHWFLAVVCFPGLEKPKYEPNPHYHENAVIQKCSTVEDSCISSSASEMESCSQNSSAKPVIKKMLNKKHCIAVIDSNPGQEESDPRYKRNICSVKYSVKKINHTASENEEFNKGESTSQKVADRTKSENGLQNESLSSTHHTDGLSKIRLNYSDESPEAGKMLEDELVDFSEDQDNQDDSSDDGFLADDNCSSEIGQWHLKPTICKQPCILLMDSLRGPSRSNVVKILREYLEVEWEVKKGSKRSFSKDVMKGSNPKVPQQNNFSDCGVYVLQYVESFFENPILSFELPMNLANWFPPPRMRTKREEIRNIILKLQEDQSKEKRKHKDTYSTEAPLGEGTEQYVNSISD

[2] = biological target: T2, Sentrin-specific protease 7 (Homo sapiens, UniProt Q9BQF6); type: functional;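 also: Luminescence-based dose-response confirmation of ultra-high-throughput screening hits, measuring inhibition of SENP7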
T2 sequence (Q9BQF6 whole entry): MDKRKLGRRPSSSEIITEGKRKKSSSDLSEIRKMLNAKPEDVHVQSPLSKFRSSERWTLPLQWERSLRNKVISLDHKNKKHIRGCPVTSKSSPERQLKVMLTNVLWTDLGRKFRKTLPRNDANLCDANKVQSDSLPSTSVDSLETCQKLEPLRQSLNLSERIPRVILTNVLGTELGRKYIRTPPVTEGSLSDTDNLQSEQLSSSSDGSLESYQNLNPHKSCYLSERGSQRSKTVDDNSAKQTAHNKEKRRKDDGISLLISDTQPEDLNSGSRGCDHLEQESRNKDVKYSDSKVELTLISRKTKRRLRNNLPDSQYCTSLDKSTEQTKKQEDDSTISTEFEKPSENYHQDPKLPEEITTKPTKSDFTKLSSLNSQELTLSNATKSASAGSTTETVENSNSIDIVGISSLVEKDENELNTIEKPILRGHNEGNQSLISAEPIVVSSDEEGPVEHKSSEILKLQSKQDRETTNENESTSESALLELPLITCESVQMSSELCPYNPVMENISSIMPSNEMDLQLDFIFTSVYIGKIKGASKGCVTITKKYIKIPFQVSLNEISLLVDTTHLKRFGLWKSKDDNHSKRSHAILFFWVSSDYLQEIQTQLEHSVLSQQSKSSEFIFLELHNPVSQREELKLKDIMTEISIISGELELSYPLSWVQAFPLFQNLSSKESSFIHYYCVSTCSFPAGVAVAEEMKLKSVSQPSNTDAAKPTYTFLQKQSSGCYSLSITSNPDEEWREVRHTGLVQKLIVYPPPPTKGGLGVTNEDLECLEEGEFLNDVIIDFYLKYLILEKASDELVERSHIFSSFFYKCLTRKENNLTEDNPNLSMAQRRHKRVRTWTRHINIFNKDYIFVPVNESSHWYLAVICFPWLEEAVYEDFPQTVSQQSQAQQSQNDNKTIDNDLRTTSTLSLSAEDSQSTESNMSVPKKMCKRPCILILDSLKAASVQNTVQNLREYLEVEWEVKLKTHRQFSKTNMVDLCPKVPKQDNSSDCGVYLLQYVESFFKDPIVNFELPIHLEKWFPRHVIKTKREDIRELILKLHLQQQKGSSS

[3] = Counterscreen for activators of the function of SWI/SNF related, matrix associated, actin dependent regulator of chromatin, subfamily a, member 2 (SMARCA2, BRM): Luminescence-based cell-based high throughput dose response assay to identify non-selective compounds using the VP16 reporter assay.; type: functional
[4] = biological target: T3, Caspase-3 (Homo sapiens, UniProt P42574); type: functional;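 also: Dose-response selectivity test against caspase-3 for candidate inhibitors of sentrin-specific proteases (SENPs)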
T3 sequence (P42574 whole entry): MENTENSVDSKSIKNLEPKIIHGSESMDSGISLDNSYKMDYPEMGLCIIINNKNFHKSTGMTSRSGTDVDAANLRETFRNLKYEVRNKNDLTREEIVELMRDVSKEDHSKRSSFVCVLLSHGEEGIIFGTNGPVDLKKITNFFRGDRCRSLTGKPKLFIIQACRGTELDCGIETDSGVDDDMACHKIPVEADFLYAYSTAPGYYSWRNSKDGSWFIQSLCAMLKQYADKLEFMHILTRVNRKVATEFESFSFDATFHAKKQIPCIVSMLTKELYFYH

[5] = biological target: T4, Sentrin-specific protease 8 (Homo sapiens, UniProt Q96LD8); type: functional;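 also: luminescence read-out of SENP8 inhibition, dose-response confirmation following an ultra-high-throughput screen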
T4 sequence (Q96LD8 whole entry): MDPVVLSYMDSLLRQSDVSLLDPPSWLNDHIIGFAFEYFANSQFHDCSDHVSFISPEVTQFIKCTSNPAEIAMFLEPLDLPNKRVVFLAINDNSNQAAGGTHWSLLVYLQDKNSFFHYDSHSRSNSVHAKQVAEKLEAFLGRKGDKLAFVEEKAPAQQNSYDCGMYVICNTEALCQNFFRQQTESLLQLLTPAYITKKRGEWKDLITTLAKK

[6] = biological target: SWI/SNF-related matrix-associated actin-dependent regulator of chromatin subfamily A member 2 (Homo sapiens, UniProt P51531); test: Luminescence-based cell-based high throughput dose response assay to identify activators of the function of SWI/SNF related, matrix associated, actin dependent regulator of chromatin, subfamily a, member 2 (SMARCA2, BRM).; type: functional
[7] = tested on: Vero; test: viability loss in Vero cells – cell-based, plate reader, cherry-pick samples, cytotoxicity control, dose response (AID 687020); type: functional; details: Chlorocebus sabaeus
[8] = biological target: T5, Trace amine-associated receptor 1 (Homo sapiens, UniProt Q96RJ0); test: Fluorescence-based cell-based high throughput dose response assay to identify agonists of the human trace amine associated receptor 1 (TAAR1).; type: functional
T5 sequence (Q96RJ0 whole entry): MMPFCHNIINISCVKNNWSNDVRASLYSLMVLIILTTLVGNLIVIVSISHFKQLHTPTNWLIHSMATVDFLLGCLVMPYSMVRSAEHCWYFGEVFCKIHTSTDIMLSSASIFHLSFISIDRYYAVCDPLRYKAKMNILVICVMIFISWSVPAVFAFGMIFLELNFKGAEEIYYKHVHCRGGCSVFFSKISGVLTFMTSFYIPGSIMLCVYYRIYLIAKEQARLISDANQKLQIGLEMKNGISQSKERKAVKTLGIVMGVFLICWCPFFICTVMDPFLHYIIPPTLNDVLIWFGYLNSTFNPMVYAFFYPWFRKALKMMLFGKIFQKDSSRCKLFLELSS

[9] = biological target: T6, Streptokinase A (Streptococcus pyogenes serotype M1, UniProt P10520); test: viability-normalized secreted streptokinase activity reduction – plasminogen activation absorbance, OD405, dose response (AID 1914); type: functional, Streptococcus pyogenes M1 GAS;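 also: secreted streptokinase activity via plasminogen activation per viability signal from cell pellet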
T6 sequence (P10520 whole entry): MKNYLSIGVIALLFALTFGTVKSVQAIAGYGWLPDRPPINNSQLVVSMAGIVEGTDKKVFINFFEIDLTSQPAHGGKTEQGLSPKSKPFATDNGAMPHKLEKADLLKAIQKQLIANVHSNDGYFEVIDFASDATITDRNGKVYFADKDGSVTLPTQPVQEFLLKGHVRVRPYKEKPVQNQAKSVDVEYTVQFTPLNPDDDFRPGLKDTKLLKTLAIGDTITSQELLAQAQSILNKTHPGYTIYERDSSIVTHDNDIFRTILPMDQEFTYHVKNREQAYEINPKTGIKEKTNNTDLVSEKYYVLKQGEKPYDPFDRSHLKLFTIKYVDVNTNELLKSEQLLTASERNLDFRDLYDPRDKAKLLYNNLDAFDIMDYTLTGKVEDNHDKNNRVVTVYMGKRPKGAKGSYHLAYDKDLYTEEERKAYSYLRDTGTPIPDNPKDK

[10] = cells; type: functional, cell-based
[11] = biological target: T5, Trace amine-associated receptor 1; test: Counterscreen for agonists of the human trace amine associated receptor 1 (hTAAR1): Fluorescence-based cell-based high throughput dose response assay to identify hTAAR1 agonist that also desensitize TAAR1 receptor response.; type: functional
[12] = cells; type: functional, cell-based; remark: listed apart in the source
[13] = tested on: Streptococcus sp. 'group A'; test: Streptococcus pyogenes SK(-)GAS viability under kanamycin – luminescence, BacTiterGlo, confirmation, counter-screen for streptokinase expression inhibitor project, dose response (AID 1900); type: functional, organism-based
[14] = tested on: Streptococcus; test: GAS UMAA2166 growth inhibition – luminescence, BacTiterGlo, counter-screen for streptokinase expression inhibitor project, dose response (AID 1915); type: functional, organism-based;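 also: potency for reduction of bacterial viability or growth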
[15] = biological target: Histone-lysine N-methyltransferase NSD2 (Homo sapiens, UniProt O96028); type: biochemical
[16] = viability loss in HEK293 cells – cell-based, plate reader, cherry-picked samples, cytotoxicity control, dose response (AID 743446); type: functional
[17] = blockade of melanocortin 4 receptor signaling – cell-based, plate reader, cherry pick, counter-screen for LGR2 antagonist project, dose response (AID 743444); type: functional;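 also: transfected HEK 293 cells stimulated with alpha-MSH peptide; potency of inhibitors of the alpha-MSH evoked signal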
[18] = blockers of bursicon-stimulated LGR2 cAMP reporter – cell-based, HEK293, CRE-luciferase reporter, cherry pick, set 2, dose response (AID 743343); type: functional;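 also: transfected cells were stimulated with diluted bursicon conditioned medium after compound addition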
[19] = toxicity toward HepG2 liver cells – cell-based, plate reader, cherry-pick, antagonist series, cytotoxicity control, dose response (AID 743416); type: functional
[20] = cells; type: functional, cell-based; details: HEK-CNG
[21] = biological target: Galanin receptor type 3 (Homo sapiens, UniProt O60755); test: Fluorescence-based cell-based primary high throughput dose response assay to identify antagonists of the Galanin Receptor 3 (GalR3).; type: functional
Chain of Galanin receptor type 3 (O60755 whole entry): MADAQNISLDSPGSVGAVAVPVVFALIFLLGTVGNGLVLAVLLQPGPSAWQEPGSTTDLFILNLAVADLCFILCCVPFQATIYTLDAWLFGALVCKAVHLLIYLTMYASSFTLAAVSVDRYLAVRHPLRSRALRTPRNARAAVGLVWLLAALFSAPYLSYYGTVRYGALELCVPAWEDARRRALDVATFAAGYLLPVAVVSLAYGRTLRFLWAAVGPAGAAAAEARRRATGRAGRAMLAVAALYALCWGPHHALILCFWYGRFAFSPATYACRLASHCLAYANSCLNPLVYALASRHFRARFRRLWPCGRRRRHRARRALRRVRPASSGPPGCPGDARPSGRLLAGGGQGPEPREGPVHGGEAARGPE

Chain of SWI/SNF-related matrix-associated actin-dependent regulator of chromatin subfamily A member 2 (P51531 whole entry): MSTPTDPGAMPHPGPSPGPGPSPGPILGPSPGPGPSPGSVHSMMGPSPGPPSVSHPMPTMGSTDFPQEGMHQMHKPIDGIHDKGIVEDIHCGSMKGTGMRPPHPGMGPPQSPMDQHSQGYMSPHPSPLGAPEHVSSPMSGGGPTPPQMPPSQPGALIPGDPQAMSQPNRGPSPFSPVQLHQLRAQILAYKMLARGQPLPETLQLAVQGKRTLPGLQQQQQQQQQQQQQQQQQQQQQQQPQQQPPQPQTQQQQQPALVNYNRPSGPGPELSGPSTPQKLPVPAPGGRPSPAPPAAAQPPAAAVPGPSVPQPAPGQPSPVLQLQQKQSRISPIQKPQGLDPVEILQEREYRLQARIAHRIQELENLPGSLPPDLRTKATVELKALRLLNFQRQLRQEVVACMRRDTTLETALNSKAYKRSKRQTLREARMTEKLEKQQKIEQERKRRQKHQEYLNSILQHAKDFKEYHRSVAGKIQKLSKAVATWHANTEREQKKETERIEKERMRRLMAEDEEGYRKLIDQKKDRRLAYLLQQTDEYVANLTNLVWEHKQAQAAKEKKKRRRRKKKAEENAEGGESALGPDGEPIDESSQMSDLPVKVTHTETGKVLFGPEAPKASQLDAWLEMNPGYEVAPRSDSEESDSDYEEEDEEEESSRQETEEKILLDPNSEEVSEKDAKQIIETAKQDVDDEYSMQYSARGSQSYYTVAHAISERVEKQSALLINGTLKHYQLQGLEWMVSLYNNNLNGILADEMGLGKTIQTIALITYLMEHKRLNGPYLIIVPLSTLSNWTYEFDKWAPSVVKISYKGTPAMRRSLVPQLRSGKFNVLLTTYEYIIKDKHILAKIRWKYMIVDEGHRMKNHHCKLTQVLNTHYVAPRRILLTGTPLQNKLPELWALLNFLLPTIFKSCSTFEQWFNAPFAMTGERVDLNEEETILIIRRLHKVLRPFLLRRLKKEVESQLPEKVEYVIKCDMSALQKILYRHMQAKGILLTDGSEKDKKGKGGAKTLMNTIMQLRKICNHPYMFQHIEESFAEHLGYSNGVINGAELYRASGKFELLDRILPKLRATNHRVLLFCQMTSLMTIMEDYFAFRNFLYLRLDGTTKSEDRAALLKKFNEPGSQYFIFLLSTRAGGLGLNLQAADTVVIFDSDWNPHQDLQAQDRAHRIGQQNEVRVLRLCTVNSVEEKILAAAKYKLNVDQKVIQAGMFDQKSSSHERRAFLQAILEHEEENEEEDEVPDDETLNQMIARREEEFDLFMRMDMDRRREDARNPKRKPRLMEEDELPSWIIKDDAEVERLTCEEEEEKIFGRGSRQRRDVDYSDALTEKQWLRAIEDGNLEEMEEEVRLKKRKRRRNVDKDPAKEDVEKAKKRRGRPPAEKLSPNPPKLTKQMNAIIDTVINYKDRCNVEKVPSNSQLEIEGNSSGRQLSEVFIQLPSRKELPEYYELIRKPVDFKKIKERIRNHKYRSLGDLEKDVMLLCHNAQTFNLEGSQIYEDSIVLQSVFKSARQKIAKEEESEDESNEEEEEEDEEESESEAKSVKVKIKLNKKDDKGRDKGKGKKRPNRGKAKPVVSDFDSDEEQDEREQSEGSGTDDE
Chain of Histone-lysine N-methyltransferase NSD2 (O96028 whole entry): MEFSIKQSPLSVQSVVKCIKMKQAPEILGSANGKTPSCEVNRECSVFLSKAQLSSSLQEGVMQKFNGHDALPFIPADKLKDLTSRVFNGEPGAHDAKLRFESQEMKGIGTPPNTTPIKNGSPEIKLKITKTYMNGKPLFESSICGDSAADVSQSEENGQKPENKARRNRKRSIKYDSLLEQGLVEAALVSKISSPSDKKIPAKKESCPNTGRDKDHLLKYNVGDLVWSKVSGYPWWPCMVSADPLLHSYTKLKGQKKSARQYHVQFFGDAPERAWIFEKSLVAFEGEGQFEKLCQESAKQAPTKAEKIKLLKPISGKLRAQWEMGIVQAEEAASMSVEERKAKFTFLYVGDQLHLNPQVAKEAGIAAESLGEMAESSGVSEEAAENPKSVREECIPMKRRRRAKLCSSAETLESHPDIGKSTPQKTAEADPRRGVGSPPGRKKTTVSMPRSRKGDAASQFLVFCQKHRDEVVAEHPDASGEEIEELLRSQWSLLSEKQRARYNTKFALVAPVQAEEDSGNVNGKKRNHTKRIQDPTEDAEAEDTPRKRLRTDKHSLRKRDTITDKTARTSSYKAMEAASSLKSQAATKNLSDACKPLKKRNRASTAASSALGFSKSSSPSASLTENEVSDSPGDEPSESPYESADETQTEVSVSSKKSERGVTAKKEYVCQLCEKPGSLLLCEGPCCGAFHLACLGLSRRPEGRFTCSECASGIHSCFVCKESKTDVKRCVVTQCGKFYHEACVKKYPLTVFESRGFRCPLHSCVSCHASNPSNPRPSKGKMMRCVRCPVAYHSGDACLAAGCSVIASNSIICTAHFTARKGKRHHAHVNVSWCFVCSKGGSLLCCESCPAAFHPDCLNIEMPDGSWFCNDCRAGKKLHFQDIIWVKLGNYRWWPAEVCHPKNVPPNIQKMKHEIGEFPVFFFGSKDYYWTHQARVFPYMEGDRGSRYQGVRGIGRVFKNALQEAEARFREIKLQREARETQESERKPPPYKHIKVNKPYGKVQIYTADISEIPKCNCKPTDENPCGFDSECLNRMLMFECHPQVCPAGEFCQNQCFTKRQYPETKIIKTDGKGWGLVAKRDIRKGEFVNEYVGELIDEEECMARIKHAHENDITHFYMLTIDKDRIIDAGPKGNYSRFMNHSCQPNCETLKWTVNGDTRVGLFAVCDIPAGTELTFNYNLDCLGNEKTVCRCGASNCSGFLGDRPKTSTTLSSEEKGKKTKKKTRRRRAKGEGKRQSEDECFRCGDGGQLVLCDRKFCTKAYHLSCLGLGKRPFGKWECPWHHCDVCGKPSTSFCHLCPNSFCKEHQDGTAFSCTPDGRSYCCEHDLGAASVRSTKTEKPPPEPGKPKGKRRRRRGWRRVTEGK

For `Fc1cccc(F)c1-c1nc(-c2ccc(Cl)cc2)no1`, the IC50 [1] was 5.78 µM (active), the IC50 [2] was 3.99 µM (active) and the EC50 [3] was > 91.2 µM (inactive). The IC50 [4] was 25.2 µM (active), the IC50 [5] was 21.8 µM (active) and the EC50 [6] was > 91.2 µM (inactive).

With `Cc1cc(Cl)c2oc(C(=O)N(C)CCCCN3CCOCC3)c(C)c2c1` the AC50 [7] was 30.2 µM (active).

With `CCN(CCn1cccn1)C(=O)CC1C(=O)NCCN1CCc1ccccc1` (stereo not drawn) the EC50 [8] was 1.31 µM (active), the EC50 [9] was > 150 µM (not active) and the IC50 [10] was > 29.9 µM (inactive). For the same compound, the IC50 [11] was 2.2 µM (active), the EC50 [12] was > 29.9 µM (inactive) and the EC50 [13] was > 150 µM (not active). The EC50 [14] was > 150 µM (not active).

With `OCC1OC(n2cnc3c(SCc4ccccc4)ncnc32)C(O)C1O` (stereo not drawn) the EC50 [3] was > 91.3 µM (inactive) and the EC50 [6] was > 91.3 µM (inactive).

For `CCCN(CCC)CCCNC(=O)c1ccc(CS(=O)(=O)c2c(Cl)cccc2Cl)o1`, the AC50 [15] was > 20 µM (inactive).

With `CC(C)c1ccc(Nc2ncc3c(n2)CCN(C(=O)Nc2ccc(F)c(Cl)c2)C3)cc1` the AC50 [7] was 21 µM (active).

With `O=C(Nc1nc2ccccc2s1)c1ccc2sc([C@H]3C[C@H](O)[C@@H](CO)O3)nc2c1` the AC50 [16] was > 52 µM (inactive), the AC50 [17] was 18.5 µM (active) and the AC50 [18] was 18.2 µM (active). The AC50 [19] was > 52 µM (inactive).

With `Clc1cccc(CN2CCN(c3ncc(Cc4ccccc4)cn3)CC2)c1Cl` the EC50 [20] was > 29.9 µM (inactive) and the IC50 [21] was > 0.369 µM (active).

In the case of `CC(Cc1ccccc1)NC=O` (stereo not drawn) [FORMETOREX], the EC50 [8] is reported as 0.576 µM (active), the IC50 [10] is reported as > 29.9 µM (inactive) and the IC50 [11] is reported as 2.27 µM (active). For the same compound, the EC50 [12] was > 29.9 µM (inactive).
